US8597660B2, “Therapeutic approach to neurodegenerative disorders using a TFP5-peptide” (The United States of America, as represented by the …, priority 2010, dated 2013)
“Also recorded” adds a separate entry of the source.

What was measured:
cleaved caspase-3 = assay: Cleaved caspase-3 Western blot in Aβ-treated cortical neurons; type: cell-based, rat; details: Aβ 6 h; P5 infection or roscovitine
Experimental: (§1) Western blot analysis was performed as previously described (Zheng et al., Eur J Biochem 269(18), 4427-4434, 2002). In brief, an equal amount of total protein (20 μg/lane) was resolved on a 4-20% SDS polyacrylamide gel and blotted onto a polyvinylidene difluoride membrane. This membrane was incubated in blocking buffer containing 20 mM Tris-HCl (pH 7.4), 150 mM NaCl, and 0.1% (vol/vol) Tween 20 (TTBS) plus 5% dry milk (w/v) for 1 hour at room temperature followed by incubation overnight at 4° C. in primary antibodies (see antibodies). The membranes were then washed four times in TTBS (5 minutes/each) followed by incubation in secondary antibody (goat-antimouse or goat anti-rabbit IgG (H+L)-horseradish peroxidase (HRP) conjugate at a dilution of 1:3000) for 1 hour at room temperature. Western blots were analyzed using the Amersham Enhanced Chemiluminescence (ECL) kit following the manufacturer's instructions (GE Healthcare, Piscataway, N.J.).
To determine whether P5 inhibited neuronal apoptosis induced by Aβ, primary cortical neurons (5 days in culture (DIC)) were transfected with P5-GFP using Lipofectamine 2000. After 24 hours, cells were exposed to Aβ for 6 hours. The neurons were fixed and subjected to TUNEL staining, while P5 was visualized by (green fluorescent protein) GFP. […] The data are quantified in FIG. 5B. […] The data are quantified in FIG. 5D.

Cdk5/P25 = Cdk5/P25 (Homo sapiens, UniProt Q00535); assay: Cdk5/P25 kinase assay after pre-incubation with β-tubulin; type: biochemical
Chain of Cdk5/P25 (Q00535 whole entry, species assumed): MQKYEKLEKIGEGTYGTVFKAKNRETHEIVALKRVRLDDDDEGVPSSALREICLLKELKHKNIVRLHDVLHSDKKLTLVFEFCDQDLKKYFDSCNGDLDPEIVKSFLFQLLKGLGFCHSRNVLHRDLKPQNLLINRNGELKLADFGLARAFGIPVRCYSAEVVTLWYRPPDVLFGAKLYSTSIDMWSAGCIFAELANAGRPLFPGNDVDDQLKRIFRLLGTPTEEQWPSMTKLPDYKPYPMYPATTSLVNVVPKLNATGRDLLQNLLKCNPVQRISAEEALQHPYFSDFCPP
Experimental: Tubulin polymerization was performed as detailed in a previous report (Hou et al., J. Biol. Chem., 282(26), 18666-18670, 2007). Briefly, active kinase Cdk5/P35 (2 ng/μL) or active Cdk5/P25 (1 ng/μL) were incubated with β-tubulin (enzyme: tubulin at 1:100) in the PEM buffer (80 mM PIPES, 2 mM MgCl2, 1 mM EGTA PH 7.0) supplemented with 1 mM GTP at 35° C. for 45 minutes. Following the incubation, Cdk5 kinase assays were performed with or without the addition of 0.45 μM or 0.90 μM P5.
To further explore this possibility, β-tubulin (which is enriched in neurons) was used to perform a study in vitro to mimic P35 interactions in cells. Cdk5/P35 and Cdk5/P25 active kinases were pre-incubated with β-tubulin (Cdk5 kinase:tubulin=1:100) respectively at 35° C. for 45 minutes to 1 hour under conditions that would promote tubulin polymerization, followed by a Cdk5 kinase assay with/without the addition of P5. […] Cdk5/P25 activity, however, was inhibited 60% after pre-incubation at the lower P5 concentration (0.45 μM) (FIG. 9B, lane 4 compared with lane 1) (p<0.01). […] On the other hand, P25, lacking the P10 domain, fails to bind these proteins, and P5 readily binds with Cdk5 in the Cdk5/P25 complex to inhibit activity.

tau phosphorylation = assay: Aβ-induced tau phosphorylation in cortical neurons, Western blot; type: cell-based, rat; details: Aβ 6 h
Experimental: Primary cultures of rat cortical neurons were prepared from E-18 rat fetuses as described previously (Zheng et al., J Biol Chem 278(26), 24026-24032, 2003). After 7 days, cells were infected independently or co-infected with empty vector (EV), the constructs of P5, P25, P35, wild-type Cdk5 and dominant negative Cdk5 (changing Lys33 to Thr33) using the Adenoviral vector (pAdTrack-CMV) packaging system as described above. […] The cells were fixed for immunocytochemistry analyses (ICC) or lysed with lysis buffer for immunoprecipitation and Western blot analyses. Cortical neuron cultures were prepared and plated on the cover slips as described. Human embryo kidney cells (HEK293) were grown as described previously (Zheng et al., Eur J Biochem 269(18), 4427-4434, 2002). In these studies HEK293 cells on day 1, or neurons on day 5, were transfected with or without Myc-P5-GFP using Lipofectamine 2000 following the manufacturer's instructions.
as §1
Amyloid plaques and neurofibrillary tangles, pathological hallmarks of several neurodegenerative disorders, are linked to deregulated Cdk5 and neuronal death. According to one model, β amyloid, being toxic, may evoke abnormal calcium influx into neurons which activates calpains. […] Hyperactivation of Cdk5, leads to the aberrant phosphorylation of tau and neurofilaments in a number of neurodegenerative diseases including AD and ALS. For example, primary cortical neurons, when treated with Aβ1-42 are induced to form Cdk5/P25 complexes, hyperactive Cdk5 activity, hyperphosphorylation of tau, and neuronal apoptosis. To determine whether P5 will inhibit endogenous tau phosphorylation induced by Aβ treatment in cortical neurons, 7 day old cortical neurons, infected with empty vector (EV) or with P5 were treated with Aβ for 6 hours, lysed and prepared for Cdk5 immunoprecipitation and kinase assay. Aβ treatment causes an approximate 3-fold increase in endogenous Cdk5 activity as visualized by histone H1 phosphorylation (FIG. 4A, panel 5, lane 2; FIG. 4B).
; FIG. 4D). […] Tau antibodies p-Ser404, PHF antibody AT180 (recognizes p-Thr231) and p-Ser422 antibodies were used to observe whether P5 affects other tau phosphorylation residues (FIGS. 4E, 4F). […]. Tau 5 recognizes total tau, nonphosphorylated as well as phosphorylated.

P5: 24 residue peptide derived from Cdk5 activator P35 (K254-A277 of SEQ ID NO: 16); Cdk5 inhibitory peptide (KEAFWDRCLSVINLMSSKMLQINA; listed as Homo sapiens)
Cleaved caspase-3 expression (cleaved caspase-3): marked reduction in cleaved caspase 3 expression; also recorded: reduced to control EV levels; also recorded: significantly rescued cortical neurons from apoptosis
Inhibition of Cdk5/P25 activity with unpolymerized tubulin (no pre-incubation) (Cdk5/P25; 0.45 μM P5): P5 inhibits both kinases equally; also recorded: inhibited both Cdk5/P35 and Cdk5/P25 activities equally; also recorded: inhibited both complexes equally
Inhibition of Cdk5/P25 activity pre-incubated with polymerized tubulin (Cdk5/P25; 0.9 μM P5): both kinase complexes are inhibited equally; also recorded: both Cdk5 complexes were inhibited
Aβ-induced tau phosphorylation at Ser404 (tau phosphorylation; P5 infection): reduces phosphorylation at Thr 231 and Ser404; also recorded: significantly inhibits tau phosphorylation at S404 and T231
Aβ-induced tau phosphorylation at Thr231 (AT180) (tau phosphorylation; P5 infection): reduces phosphorylation at Thr 231 and Ser404; also recorded: significantly inhibits tau phosphorylation at S404 and T231
Aβ-induced tau phosphorylation at Ser422 (tau phosphorylation; P5 infection or roscovitine): only a modest affect on Ser 422; also recorded: slight decrease of tau phosphorylation at the Ser422 site, is not significant
Aβ-induced tau phosphorylation detected by AT8 and p-Ser199/202 antibodies (tau phosphorylation; P5 infection or roscovitine): baseline levels of tau phosphorylation; also recorded: restoring it to basal levels
